Test results reported in the supplement of paper PMC12317010.
Structures can show the parent of a compound that is named as a salt.

Assay: collision cross section in nitrogen (drift tube, single-field); higher = larger gas-phase ion size
[1] = ion type: [M-H], ion source: ESI, ion mode: Negative
[2] = ion type: [M+H], ion source: ESI, ion mode: Positive
[3] = ion type: [M+H], ion source: APCI, ion mode: Positive
[4] = ion type: [M+Na], ion source: ESI, ion mode: Positive
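Also: chemical standards at 10 µM analysed by drift tube IMS-QTOF MS in about 3.95 torr nitrogen, mean of duplicate injections differing ≤1%, mass error below 10 ppm.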

Row | Compound | collision cross section in nitrogen [2] [Å²] | collision cross section in nitrogen [3] [Å²] | collision cross section in nitrogen [4] [Å²] | collision cross section in nitrogen [1] [Å²] | collision cross section in nitrogen (ion type: [M+], ion source: APCI, ion mode: Positive) [Å²]
1 | CC(Cc1ccc(O)c(O)c1)C(C)Cc1ccc(O)c(O)c1 (stereo not drawn) [Nordihydroguaiaretic acid] |  |  |  | 167.5 | 
2 | C#C[C@]1(O)CC[C@H]2[C@@H]3CCC4=CC(=O)CC[C@@H]4[C@H]3CC[C@@]21C [Norethindrone] | 178.1 |  |  |  | 
3 | CNc1cnn(-c2cccc(C(F)(F)F)c2)c(=O)c1Cl [Norflurazon] | 162.4 | 162.7 | 171.9 | 160.9 | 
4 | O=C(NC(=O)c1c(F)cccc1F)Nc1ccc(OC(F)(F)C(F)OC(F)(F)F)c(Cl)c1 (stereo not drawn) [Novaluron] |  |  |  | 204.4 | 
5 | OC(c1ccc(F)cc1)(c1cncnc1)c1ccccc1Cl (stereo not drawn) [Nuarimol] | 171.2 | 171.6 |  | 170.7 | 
6 | CCOP(=S)(S)OCC [O,O′-Diethyl hydrogen dithiophosphate] |  |  |  | 135 | 
7 | CCCCCCCCCCCCCCCCCC(=O)O [Octadecanoic acid] |  |  |  | 177.2 | 
8 | CCCCCCCCCCCCCCCCCCOS(=O)(=O)O [Octadecyl sulfate sodium salt] |  |  |  | 189.8 | 
9 | CCCCCCCCOC(=O)c1cc(O)c(O)c(O)c1 [Octyl gallate] |  |  |  | 171.5 | 
10 | CCCCCCCCOC(=O)c1ccccc1O [Octyl salicylate] |  |  |  | 162.2 | 
11 | CCCCCCCCOC(=O)c1ccc(O)cc1 [Octylparaben] |  |  |  | 169.1 | 
12 | CCCCCCCCP(=O)(O)O [Octylphosphonic acid] |  |  |  | 149.9 | 
13 | Cc1c(C(=O)NCCO)[n+]([O-])c2ccccc2[n+]1[O-] [Olaquindox] |  |  |  | 161.2 | 
14 | CCCCCCCC/C=C\CCCCCCCC(=O)O [Oleic acid] |  |  |  | 176.3 | 
15 | CCCCCc1cc(O)cc(O)c1 [Olivetol] |  |  |  | 148.5 | 
16 | CNC(=O)CSP(=O)(OC)OC [Omethoate] |  | 137.1 | 145.9 |  | 
17 | CCCN(CCC)c1c([N+](=O)[O-])cc(S(N)(=O)=O)cc1[N+](=O)[O-] [Oryzalin] |  |  |  | 177.3 | 
18 | CC(C)Oc1cc(-n2nc(C(C)(C)C)oc2=O)c(Cl)cc1Cl [Oxadiazon] |  |  |  | 177.1 | 
19 | COCC(=O)N(c1c(C)cccc1C)N1CCOC1=O [Oxadixyl] |  |  | 167.1 |  | 
20 | CNC(=O)ON=C(SC)C(=O)N(C)C [Oxamyl] |  |  | 150.9 |  | 
21 | O=C1Nc2ccc(Cl)cc2C(c2ccccc2)=NC1O (stereo not drawn) [Oxazepam] | 163.7 | 163.5 | 180 | 162.7 | 
22 | CCn1cc(C(=O)O)c(=O)c2cc3c(cc21)OCO3 [Oxolinic acid] | 152.3 | 152.6 | 165 |  | 

Row | Compound | collision cross section in nitrogen [2] [Å²] | collision cross section in nitrogen [3] [Å²] | collision cross section in nitrogen [4] [Å²] | collision cross section in nitrogen [1] [Å²] | collision cross section in nitrogen (ion type: [M+], ion source: APCI, ion mode: Positive) [Å²]
23 | CC1=C(C(=O)Nc2ccccc2)S(=O)(=O)CCO1 [Oxycarboxin] |  |  | 168.9 |  | 
24 | CCOc1cc(Oc2ccc(C(F)(F)F)cc2Cl)ccc1[N+](=O)[O-] [Oxyfluorfen] |  |  |  | 172.1 | 
25 | O=c1[nH]c(=O)c2c[nH]nc2[nH]1 [Oxypurinol] |  |  |  | 122.3 | 
26 | OC(c1ccc(Cl)cc1)(c1ccc(Cl)cc1)c1cccnc1 [Parinol] | 183.1 | 183.7 |  | 177.2 | 
27 | CCCC(Cn1cncn1)c1ccc(Cl)cc1Cl (stereo not drawn) [Penconazole] | 166.1 | 166.3 |  |  | 
28 | O=C(Nc1ccccc1)N(Cc1ccc(Cl)cc1)C1CCCC1 [Pencycuron] | 180.5 | 180.7 | 192.8 | 185.7 | 
29 | CCC(CC)Nc1c([N+](=O)[O-])cc(C)c(C)c1[N+](=O)[O-] [Pendimethalin] |  |  |  | 163.7 | 
30 | COc1cnc(OC)n2nc(NS(=O)(=O)c3c(OCC(F)F)cccc3C(F)(F)F)nc12 [Penoxsulam] | 195.6 | 196 | 198.5 | 193.3 | 
31 | Nc1c(Cl)c(Cl)c(Cl)c(Cl)c1Cl [Pentachloroaniline] |  |  |  | 138.4 | 
32 | C=CC(=O)OCC(COC(=O)C=C)(COC(=O)C=C)COC(=O)C=C [Pentaerythritol tetraacrylate] | 172.6 |  | 178.8 |  | 
33 | C=CC(=O)OCC(CO)(COC(=O)C=C)COC(=O)C=C [Pentaerythritol triacrylate] |  |  | 165.1 |  | 
34 | O=S(=O)(O)C(F)(F)C(F)(F)C(F)(F)C(F)(F)F [Perfluorobutanesulfonic acid] |  |  |  | 133.8 | 
35 | O=C(O)C(F)(F)C(F)(F)C(F)(F)C(F)(F)C(F)(F)C(F)(F)C(F)(F)C(F)(F)C(F)(F)F [Perfluorodecanoic acid] |  |  |  | 175.1 | 
36 | O=C(O)C(F)(F)C(F)(F)C(F)(F)C(F)(F)C(F)(F)C(F)(F)C(F)(F)C(F)(F)F [Perfluorononanoic acid] |  |  |  | 166.1 | 
37 | NS(=O)(=O)C(F)(F)C(F)(F)C(F)(F)C(F)(F)C(F)(F)C(F)(F)C(F)(F)C(F)(F)F [Perfluorooctanesulfonamide] |  |  |  | 170.4 | 
38 | O=S(=O)(O)C(F)(F)C(F)(F)C(F)(F)C(F)(F)C(F)(F)C(F)(F)C(F)(F)C(F)(F)F [Perfluorooctanesulfonic acid] |  |  |  | 168.7 | 
39 | O=C(O)C(F)(F)C(F)(F)C(F)(F)C(F)(F)C(F)(F)C(F)(F)C(F)(F)F [Perfluorooctanoic acid] |  |  |  | 157 | 
40 | O=C(O)C(F)(F)C(F)(F)C(F)(F)C(F)(F)C(F)(F)C(F)(F)C(F)(F)C(F)(F)C(F)(F)C(F)(F)F [Perfluoroundecanoic acid] |  |  |  | 183.9 | 
41 | CCC1(c2ccccc2)C(=O)N=C(O)NC1=O (stereo not drawn) [Phenobarbital sodium] |  |  |  | 150.4 | 
42 | O=S1(=O)OC(c2ccc(O)cc2)(c2ccc(O)cc2)c2ccccc21 [Phenol red] |  |  |  | 182 | 
43 | O=C(O)c1ccccc1C(c1ccc(O)cc1)c1ccc(O)cc1 [Phenolphthalin] |  |  |  | 184.1 | 
44 | c1ccc2c(c1)Nc1ccccc1S2 [Phenothiazine] |  |  |  |  | 136

Continued, in another order:

Row | collision cross section in nitrogen [2] [Å²] | collision cross section in nitrogen [3] [Å²] | collision cross section in nitrogen [4] [Å²] | Compound | collision cross section in nitrogen [1] [Å²] | collision cross section in nitrogen (ion type: [M+], ion source: APCI, ion mode: Positive) [Å²]
45 |  |  | 184.1 | CCCCC(CC)COC(=O)C=Cc1ccc(OC)cc1 (stereo not drawn) [Octinoxate] |  | 
46 |  | 186.3 |  | CC(C)(C)CC(C)(C)c1ccc(O)c(-n2nc3ccccc3n2)c1 [Octrizole] | 190 | 
47 |  |  | 181.2 | CCCCCCCCO[C@@H]1O[C@H](CO)[C@@H](O)[C@H](O)[C@H]1O [Octyl beta-D-glucopyranoside] | 180.1 | 
48 | 222.5 |  | 219.1 | CCCCCCCCCCOC(=O)c1ccccc1C(=O)OCCCCCCCC [Octyl decyl phthalate] |  | 
49 |  |  | 181.5 | CCCCCCCCOC(=O)c1ccccc1C(=O)O [Octyl hydrogen phthalate] | 168 | 
50 | 200.6 | 200.7 | 196 | CCCCCCCC/C=C\CCCCCCCC(=O)N(C)CC(=O)O [Oleyl sarcosine] | 191.2 | 
51 | 154.8 | 153.9 | 162.4 | NC(=O)N1c2ccccc2CC(=O)c2ccccc21 [Oxcarbazepine] |  | 
52 | 178.2 | 179 | 191.4 | COC(=O)Nc1nc2cc(S(=O)c3ccccc3)ccc2[nH]1 (stereo not drawn) [Oxfendazole] | 177 | 
53 | 197.8 | 199.9 | 207.7 | CN(C)[C@@H]1C(O)=C(C(N)=O)C(=O)[C@@]2(O)C(O)=C3C(=O)c4c(O)cccc4[C@@](C)(O)[C@H]3[C@H](O)[C@@H]12 [Oxytetracycline hydrochloride] | 198.4 | 
54 | 171.5 |  | 189.4 | CC(C)(C)[C@H](O)[C@H](Cc1ccc(Cl)cc1)n1cncn1 [Paclobutrazol] |  | 
55 | 185.2 | 185.5 | 185.5 | COc1ccnc(CS(=O)c2nc3cc(OC(F)F)ccc3[nH]2)c1OC (stereo not drawn) [Pantoprazole sodium] | 187 | 
56 | 149.6 | 149.3 |  | CCOC(=O)c1ccc(N(C)C)cc1 [Parbenate] |  | 
57 | 182.1 | 182 | 184.1 | CC1(C)S[C@@H]2[C@H](NC(=O)COc3ccccc3)C(=O)N2[C@H]1C(=O)O [Penicillin VK] |  | 
58 |  |  | 150.1 | OCCOCCOCCOCCOCCO [Pentaethylene glycol] |  | 
59 | 177.4 |  | 183.2 | N=C(N)c1ccc(OCCCCCOc2ccc(C(=N)N)cc2)cc1 [Pentamidine isethionate] |  | 
60 |  | 176.9 |  | N=C(N)c1ccc(OCCCCCOc2ccc(C(=N)N)cc2)cc1 [Pentamidine] |  | 
61 | 189.7 |  | 196.4 | CCC[C@H](N[C@@H](C)C(=O)N1[C@H](C(=O)O)C[C@@H]2CCCC[C@@H]21)C(=O)OCC [Perindopril erbumine] | 190.7 | 
62 | 141.5 | 141.4 |  | CCOc1ccc(NC(C)=O)cc1 [Phenacetin] |  | 
63 | 150.3 | 150 |  | Nc1ccc(N=Nc2ccccc2)c(N)n1 [Phenazopyridine hydrochloride] | 148.1 | 
64 | 179.8 |  |  | O=S1(=O)OC(c2ccc(O)cc2)(c2ccc(O)cc2)c2ccccc21 [Phenol Red sodium salt] | 181.8 | 
65 | 173.9 | 173.8 | 191.8 | O=C1OC(c2ccc(O)cc2)(c2ccc(O)cc2)c2ccccc21 [Phenolphthalein] | 176.2 | 
